Laboratory results reported in patent US20260345585A1, “DIETARY SUPPLEMENT COMPRISING A PREBIOTIC AND ANTIOXIDANT” (N.V. Nutricia, priority 2023, published 2026).

Legend:
RAW264.7 macrophages [1] = experiment: ROS production (DCFH-DA probe in LPS-stimulated RAW264.7 cells); assay type: cell-based; settings: Mus musculus, 10 μg/mL, relative to control (LPS only) set to 100%
Experimental: (§1) RAW264.7 macrophages were purchased from the National Collection of Authenticated Cell Cultures (Shanghai, China). The cell culture medium was supplemented with 10% fetal bovine serum and 100 U/mL penicillin and 100 μg/mL streptomycin in DMEM culture medium.
The accumulation of ROS was assessed by the radical probe DCFH-DA. At the beginning, RAW264.7 cells were seeded in 6-well plate at 1×10^6 cells/well for 24 hours followed by a 24 hour exposure to LPS to induce an inflammatory response by the RAW264.7 cells. Subsequently, the cells were exposed to different combinations of test ingredients. For the control, the cells were stimulated with LPS for 24 hours, followed by 24 hour with medium only. All experiments were performed in triplicate. […] After incubation at 37 °C for 20 minutes in the dark, the cells were washed and lysed to release intracellular DCF and the fluorescence intensity was detected at 488 nm excitation and 525 nm emission using a microplate spectrofluorometer. The higher the measured value, the higher the level of ROS.
A combination of two compounds was considered as having synergy if both values, as calculated according to formulas 1a and 1b below, were higher than 1. […] If a combination of three compounds were to be evaluated, a similar logic is applied, but the assessed concentration in the combination is divided by 3 and three comparisons are made. […]

RAW264.7 macrophages [2] = experiment: Macrophage proliferation (CCK-8 viability of LPS-stimulated RAW264.7 cells); assay type: cell-based
Experimental: as §1
The viability of RAW264.7 cells was measured by Cell Counting Kit (CCK-8). Briefly, RAW264.7 cells were plated into 96-well plates at a density of 5×10^4 cells/well and incubated at 37 °C, 5% CO2 for 24 hours. Next the cells were exposed to 1 μg/mL lipopolysaccharides (LPS) for 24 hours to induce an inflammatory response by the RAW264.7 cells. Subsequently, the cells were exposed to different combinations of test ingredients for 24 hours. For the control, the cells were stimulated with LPS for 24 hours, followed by 24 hours with medium only. […] The absorbance was recorded on an automatic microplate reader with an […] of 450 nm. The higher the measured value, the higher the number of viable cells.
The macrophage proliferation is expressed as a percentage compared to the control (LPS only) which was set to 100%. […]
For this evaluation, the concentration at which each test ingredient provided an equivalent effect on macrophage proliferation was determined.
A combination of two compounds was considered as having synergy if both values, as calculated according to formulas 1a and 1b below, were higher than 1. […]

In the case of `O=C(O)c1cc(C(=O)O)c2c(n1)C(=O)C(=O)c1cc(C(=O)O)[nH]c1-2` [PQQ, Pyrroloquinoline quinone], the activity at 10 µg/mL (RAW264.7 macrophages [1]) is reported as 62.8 ± 5.3%, the activity at 10 µg/mL (RAW264.7 macrophages [2]; Mus musculus, RAW264.7, 24 h, Example 2, 10 μg/mL, relative to control (LPS only) set to 100%) is reported as 142 ± 14.1% and the “Concentration that provided an equivalent effect on macrophage proliferation” value (RAW264.7 macrophages [2]; Table 4, LPS-stimulated RAW264.7 cells) is reported as 10 µg/mL.
